Reference: patent publication US20220062317A1, “NA+/K+ ATPASE INHIBITORS FOR USE IN THE PREVENTION OR TREATMENT OF METASTASIS” (UNIVERSITÄT BASEL, priority 2018, published 2022)

Assays:
BR16 cells = assay: Tail vein injection of in vitro pre-treated BR16 cells, metastasis seeding; assay type: in vivo, NSG mice
Protocol: To test whether ouabain and digitoxin would also enable CTC clusters disruption in vivo, the inventors took a dual approach. First, the inventors tested whether a 17-day in vitro treatment with ouabain and digitoxin would translate into a reduced ability of the treated cells to efficiently seed metastasis in untreated mice (FIG. 7A). To this end, upon treatment, BR16 cells stably expressing GFP-luciferase were injected into the tail vein of NSG mice and noninvasively monitored through luminescence imaging for their ability to seed and propagate metastatic lesions.
For tail vein experiments, NOD SCID Gamma (NSG) mice (Jackson Labs) were injected with 1×10^6 BR16-mCherry cells resuspended in 100 μl D-PBS and monitored with IVIS Lumina II (Perkin Elmer). For CTC xenograft mouse model isolation, 1×10^6 LM2-GFP, 1×10^6 BRx50-GFP or 1×10^6 BR16-GFP cells were resuspended in 100 μl of 50% Cultrex PathClear Reduced Growth Factor Basement Membrane Extract (R&D Biosystems, Cat #3533-010-02) in D-PBS and injected orthotopically in NSG mice. Blood draw was performed 4-5 weeks after tumor onset for LM2 cells, 5-6 months after tumor onset for BR16 and 6-7 months after tumor onset for BRx50 cells.

[1] = system: BRx50 human CTC-derived cells; assay: FDA-approved compound screen for CTC cluster dissociation (high content imaging); assay type: cell-based; settings: even at lowest concentration tested (0.1 μM)
BR16 CTC-derived cells = assay: as above; assay type: cell-based, human; settings: even at lowest concentration tested (0.1 μM), 2 days, hypoxia
Protocol: In order to identify actionable vulnerabilities of CTC clusters, and to test whether the epigenetic and transcriptional features of clustered CTCs are reversible upon cluster dissociation into single cells the following steps were undertaken. First, the expression of all known cell-cell junction (CCJ) components in patient samples obtained from normal breast (TGCA REF), breast cancer (TOGA REF), single CTCs and CTC clusters were assessed (Aceto et al. Cell 2014). While breast cancer cells tend to only partially reduce their CCJ repertoire compared to normal breast cells, CTCs express only a small fraction of CCJ components, likely as a consequence to their increased motility. Yet, CTC clusters retain a higher number of CCJs as compared to single CTCs. […] To this end, 2′486 FDA-approved compounds were evaluated for their ability to dissociate clusters of human breast CTC-derived cells. Cluster dissociation was assessed using a high content screening microscope and comparing cells treated with each individual compound to steady state clustered BR16 cells and 40 μm-filtered BR16 single cell suspension as negative and positive controls, respectively (FIG. 4a). […] For the majority of the 2′486 FDA-approved compounds, when using a 5 μM concentration for 2 days in hypoxic conditions, no detectable reduction in cell viability (>70% viability) nor mean cluster size (>450 μm2) in BR16 CTC-derived cells was observed. […] These compounds include inhibitors of Na^+/K^+ ATPases (n=6), HDACs (n=2), nucleotide biosynthesis (n=5), kinases (n=4), GPCRs (n=2), cholesterol biosynthesis (n=1), nuclear export (n=1), tubulin (n=9), as well as DNA binding compounds (n=8) and antibiotics (n=1).
A library containing 2,486 FDA-approved compounds was purchased from the Nexus Platform ETH Zurich. Each compound was resuspended using CTC medium at a 15 μM concentration and 20 μl were aliquoted in duplicate in a total of 64 Flat Bottom Clear Ultra Low attachment 96-well plates (Corning, Cat #3474).
To reduce cluster size in CTC derived cell lines, a 40 μm cell strainer was used (Corning, Cat #431750). […] Plates were incubated in hypoxia (5% oxygen) for 2 days and then 20 μl were transferred into a 96 well Black/clear Tissue culture treated plate (BD Falcon, Cat #353219) containing 40 μl of D-PBS (Invitrogen, Cat #14190169) and stained for 1 hr at 37° C. with a final concentration of 4 μM Hoechst 34580 (Invitrogen, Cat #H21486), 2 μM TMRM (Invitrogen, Cat #T668) and 4 μM TOTO-3 (Invitrogen, Cat #T3604). For each plate, two positive controls (non-treated cells) and two negative controls (non-treated and […] cells) were included. Z-factors were calculated per individual plate using the following formula: Z′=1−3(σs+σc)/|μs−μc|^3 (σ: standard deviation, μ: mean, s: positive control and c: negative control) (Martin et al., PLoS One 9, e88338, 2014) and ranged between 0.62-0.937. Plates were scanned using Operetta High Content Imaging System (Perkin Elmer) and cluster analysis was performed using Harmony High Content Imaging and Analysis Software (Perkin Elmer).

C[C@@H]1O[C@@H](O[C@H]2C[C@@H](O)[C@]3(CO)[C@H]4[C@H](O)C[C@]5(C)[C@@H](C6=CC(=O)OC6)CC[C@]5(O)[C@@H]4CC[C@]3(O)C2)[C@H](O)[C@H](O)[C@H]1O [ouabain, Ouabain]
expression of cleaved caspase 3 compared to control cells (BR16 cells; cancer cells in lungs, pre-treated cells, day 1): significant increase | ability of BR16 cells to lodge in the lung tissue immediately after injection (bioluminescence flux) (BR16 cells; cells pre-treated 17 days in vitro, 20 nM, tail vein, day 0): did not affect | ability to survive during the first day upon arrival (bioluminescence flux) (BR16 cells; cells pre-treated 17 days in vitro, 20 nM, tail vein, day 1): reduced ability to survive | metastatic outgrowth (BR16 cells; pre-treated cells, no further treatment in vivo, 72 days upon injection): delayed metastatic outgrowth | mean cluster size [1]: significant decrease in mean cluster size | mean cluster size (BR16 CTC-derived cells): significant decrease in mean cluster size
